How the values were obtained:
[1] = 298.15 K; 101.33 kPa; Liquid; Vibrating tube method
[2] = refractive index (Na D-line) (dimensionless); details: 298.15 K; 101.33 kPa; Liquid; Standard Abbe refractometry
[3] = xn = mol fraction of the nth substance listed; details: 298.15 K, 101 kPa, Liquid, Vibrating tube method
[4] = refractive index (Na D-line) (dimensionless); xn = mol fraction of the nth substance listed; details: 298.15 K, 101 kPa, Liquid, Standard Abbe refractometry

CC(CC(C)(C)C)CP(=O)([O-])CC(C)CC(C)(C)C.CCCCCCCCCCCCCC[P+](CCCCCC)(CCCCCC)CCCCCC
Details | mass density [kg/m3] | refractive index
[1] | 886.43 | –
[2] | – | 1.47125

CCCC[n+]1ccn(C)c1.O=S(=O)([N-]S(=O)(=O)C(F)(F)F)C(F)(F)F
Details | mass density [kg/m3] | refractive index
[1] | 1436.16 | –
[2] | – | 1.42689

CCn1cc[n+](C)c1.O=S(=O)([N-]S(=O)(=O)C(F)(F)F)C(F)(F)F
Details | mass density [kg/m3] | refractive index
[1] | 1518.86 | –
[2] | – | 1.42293

CCCCn1cc[n+](C)c1.F[P-](F)(F)(F)(F)F [1-butyl-3-methylimidazolium hexafluorophosphate]
Details | mass density [kg/m3] | refractive index
[1] | 1366.95 | –
[2] | – | 1.40926

CCCCCCn1cc[n+](C)c1.F[B-](F)(F)F [1-hexyl-3-methylimidazolium tetrafluoroborate]
Details | mass density [kg/m3] | refractive index
[1] | 1144.46 | –
[2] | – | 1.42844

CCCCCCCC[n+]1ccn(C)c1.F[B-](F)(F)F [1-methyl-3-octylimidazolium tetrafluoroborate]
Details | mass density [kg/m3] | refractive index
[1] | 1101.99 | –
[2] | – | 1.43306

CC(=O)CC(C)=O [2,4-pentanedione]
Details | mass density [kg/m3] | refractive index
[1] | 971.07 | –
[2] | – | 1.4509

CC(=O)CC(C)=O [2,4-pentanedione] + CC(CC(C)(C)C)CP(=O)([O-])CC(C)CC(C)(C)C.CCCCCCCCCCCCCC[P+](CCCCCC)(CCCCCC)CCCCCC
Details | mass density, [3] [kg/m3] | refractive index, [4]
x1 = 0.0517 | 888.32 | 1.4714
x1 = 0.0958 | 889.43 | 1.4721
x1 = 0.2082 | 892.48 | 1.4731
x1 = 0.2986 | 895.05 | 1.4742
x1 = 0.3991 | 898 | 1.4751
x1 = 0.499 | 901.47 | 1.475
x1 = 0.6013 | 905.75 | 1.4753
x1 = 0.7004 | 911.47 | 1.474
x1 = 0.7998 | 919.31 | 1.4716
x1 = 0.9 | 933.94 | 1.4659
x1 = 0.95 | 946.89 | 1.4602

CCCCCCCCCCCCCC[P+](CCCCCC)(CCCCCC)CCCCCC.N#C[N-]C#N [tetradecyl(trihexyl)phosphonium dicyanamide]
Details | mass density [kg/m3] | refractive index
[1] | 899.14 | –
[2] | – | 1.48154

CCCCCCCCCCCCCC[P+](CCCCCC)(CCCCCC)CCCCCC.N#C[N-]C#N [tetradecyl(trihexyl)phosphonium dicyanamide] + CC(=O)CC(C)=O
Details | mass density, [3] [kg/m3] | refractive index, [4]
x2 = 0.0599 | 899.94 | 1.481
x2 = 0.113 | 900.73 | 1.4808
x2 = 0.2 | 902.2 | 1.4801
x2 = 0.3143 | 904.54 | 1.4795
x2 = 0.4094 | 906.97 | 1.4785
x2 = 0.5016 | 909.92 | 1.4773
x2 = 0.5967 | 913.83 | 1.4757
x2 = 0.7002 | 919.76 | 1.4732
x2 = 0.8004 | 928.35 | 1.47
x2 = 0.9 | 942.61 | 1.463
x2 = 0.9496 | 953.89 | 1.4578

CCCCCCCCCCCCCC[P+](CCCCCC)(CCCCCC)CCCCCC.[Cl-] [trihexyl(tetradecyl)phosphonium chloride]
Details | mass density [kg/m3] | refractive index
[1] | 891.82 | –
[2] | – | 1.48175

CCCCCCCCCCCCCC[P+](CCCCCC)(CCCCCC)CCCCCC.[Cl-] [trihexyl(tetradecyl)phosphonium chloride] + CC(=O)CC(C)=O
Details | mass density, [3] [kg/m3] | refractive index, [4]
x2 = 0.0586 | 892.92 | 1.4811
x2 = 0.0977 | 893.66 | 1.481
x2 = 0.1957 | 895.67 | 1.481
x2 = 0.2949 | 898.11 | 1.4805
x2 = 0.3989 | 901.25 | 1.4799
x2 = 0.4985 | 905.14 | 1.478
x2 = 0.6092 | 910.91 | 1.4759
x2 = 0.7096 | 918.02 | 1.4741
x2 = 0.8008 | 926.85 | 1.4705
x2 = 0.9036 | 942.76 | 1.4633
x2 = 0.9508 | 953.8 | 1.458

CCCCCCCCN(CCCCCCCC)CCCCCCCC [trioctylamine]
Details | mass density [kg/m3] | refractive index
[1] | 807.46 | –
[2] | – | 1.44758

O [water]
Details | refractive index
[2] | 1.33249
